Measured values: PubChem BioAssay AID2060502 (Molecular Pharmacology Branch, DTP, NCI, 2025)
pIC50: −log10 of the molar value.

Tested on: 885724-159-R-J1-PDC complex spheroid viability
Test: Anticancer human tumor 885724-159-R-J1-PDC patient-derived pancreatic adenocarcinoma cell line growth inhibition [GQUAD]
Conditions: for pIC50: curve of first compound; for viability, T/C: stronger effect = lower value; active = viability on the fitted dose curve at most 10% of control; inactive = the rest
Procedure, shortened: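 Multi-cell-type spheroids of tumor cells with HUVEC and mesenchymal stem cells, treated with drug combinations. Concentrations descend in half-log steps from near clinical Cmax, or from 10 microM where Cmax is unknown; viability read-out.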

[1] = second compound 0.0316 µM, first compound 0.0316 µM
[2] = second compound 0.0316 µM, first compound 0.1 µM
[3] = second compound 0.0316 µM, first compound 0.316 µM
[4] = second compound 0.0316 µM, first compound 1 µM
[5] = second compound 0.0316 µM, first compound 3.16 µM
[6] = second compound 0.0316 µM, first compound 10 µM
[7] = second compound 0.1 µM, first compound 0.0316 µM
[8] = second compound 0.1 µM, first compound 0.1 µM
[9] = second compound 0.1 µM, first compound 0.316 µM
[10] = second compound 0.1 µM, first compound 1 µM
[11] = second compound 0.1 µM, first compound 3.16 µM
[12] = second compound 0.1 µM, first compound 10 µM
[13] = second compound 0.316 µM, first compound 0.0316 µM
[14] = second compound 0.316 µM, first compound 0.1 µM
[15] = second compound 0.316 µM, first compound 0.316 µM
[16] = second compound 0.316 µM, first compound 1 µM
[17] = second compound 0.316 µM, first compound 3.16 µM
[18] = second compound 0.316 µM, first compound 10 µM
[19] = second compound 1 µM, first compound 0.0316 µM
[20] = second compound 1 µM, first compound 0.1 µM
[21] = second compound 1 µM, first compound 0.316 µM
[22] = second compound 1 µM, first compound 1 µM
[23] = second compound 1 µM, first compound 3.16 µM
[24] = second compound 1 µM, first compound 10 µM
[25] = second compound 3.16 µM, first compound 0.0316 µM
[26] = second compound 3.16 µM, first compound 0.1 µM
[27] = second compound 3.16 µM, first compound 0.316 µM
[28] = second compound 3.16 µM, first compound 1 µM
[29] = second compound 3.16 µM, first compound 3.16 µM
[30] = second compound 3.16 µM, first compound 10 µM
[31] = second compound 10 µM, first compound 0.0316 µM
[32] = second compound 10 µM, first compound 0.1 µM
[33] = second compound 10 µM, first compound 0.316 µM
[34] = second compound 10 µM, first compound 1 µM
[35] = second compound 10 µM, first compound 3.16 µM
[36] = second compound 10 µM, first compound 10 µM
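Note: spheroids exposed to agents for seven days before readout.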
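Throughout, for viability, T/C: percent of vehicle control viability where 100% = DMSO wells.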

CC1COCCN1c1cc(C2(O)CC3CCC(C2)O3)c2cnn(-c3ccn[nH]3)c2n1 (stereo not drawn) + Cc1cnc(CNC(=O)c2c(=O)c3ccc(N4CCCN(C)CC4)nc3n3c2sc2ccccc23)cn1
6.71: pIC50 (second compound 10 µM)
5.94: pIC50 (second compound 0.1 µM)
6.01: pIC50 (second compound 0.316 µM)
5.95: pIC50 (second compound 0.0316 µM)
inactive: viability, T/C [1] 96.9% | viability, T/C [2] 71% | viability, T/C [3] 63.3% | viability, T/C [4] 52.9% | viability, T/C [5] 42.7% | viability, T/C [6] 30.8% | viability, T/C [7] 91.1% | viability, T/C [8] 83.7% | viability, T/C [9] 68.3% | viability, T/C [10] 51.4% | viability, T/C [11] 37.8% | viability, T/C [12] 27.9% | viability, T/C [13] 83.8% | viability, T/C [14] 81.5% | viability, T/C [15] 68.5% | viability, T/C [16] 48% | viability, T/C [17] 35% | viability, T/C [18] 22.4% | viability, T/C [19] 79.7% | viability, T/C [20] 59.3% | viability, T/C [21] 48.7% | viability, T/C [22] 39.1% | viability, T/C [23] 27.5% | viability, T/C [24] 17.9% | viability, T/C [25] 72.1% | viability, T/C [26] 56.5% | viability, T/C [27] 43.8% | viability, T/C [28] 32.4% | viability, T/C [29] 19% | viability, T/C [30] 13.8% | viability, T/C [31] 61.5% | viability, T/C [32] 59.2% | viability, T/C [33] 43.4% | viability, T/C [34] 30.1% | viability, T/C [35] 19.1% | viability, T/C [36] 12.4%
6.74: pIC50 (second compound 3.16 µM)
6.53: pIC50 (second compound 1 µM)

CC1COCCN1c1cc(C2(S(C)(=N)=O)CC2)nc(-c2ccnc3[nH]ccc23)n1 (stereo not drawn) + Cc1cnc(CNC(=O)c2c(=O)c3ccc(N4CCCN(C)CC4)nc3n3c2sc2ccccc23)cn1
< 5.00: pIC50 (second compound 0.0316 µM) | pIC50 (second compound 0.1 µM) | pIC50 (second compound 0.316 µM) | pIC50 (second compound 1 µM) | pIC50 (second compound 3.16 µM) | pIC50 (second compound 10 µM)
inactive: viability, T/C [1] 101% | viability, T/C [2] 105% | viability, T/C [3] 110% | viability, T/C [4] 106% | viability, T/C [5] 81.5% | viability, T/C [6] 92.3% | viability, T/C [7] 118% | viability, T/C [8] 105% | viability, T/C [9] 116% | viability, T/C [10] 108% | viability, T/C [11] 103% | viability, T/C [12] 91.2% | viability, T/C [13] 114% | viability, T/C [14] 99% | viability, T/C [15] 98.3% | viability, T/C [16] 87.3% | viability, T/C [17] 86% | viability, T/C [18] 86.7% | viability, T/C [19] 93.5% | viability, T/C [20] 78.5% | viability, T/C [21] 81.6% | viability, T/C [22] 87.2% | viability, T/C [23] 90.7% | viability, T/C [24] 67.1% | viability, T/C [25] 82% | viability, T/C [26] 80.4% | viability, T/C [27] 70.5% | viability, T/C [28] 79.8% | viability, T/C [29] 83% | viability, T/C [30] 60.2% | viability, T/C [31] 72.8% | viability, T/C [32] 73.4% | viability, T/C [33] 72.6% | viability, T/C [34] 72.1% | viability, T/C [35] 78% | viability, T/C [36] 59.5%

COc1ccc([C@@H](O)c2cc(-c3ncnc4cc(N5CCOCC5)ccc34)c(F)cc2Cl)nn1 + Cc1cnc(CNC(=O)c2c(=O)c3ccc(N4CCCN(C)CC4)nc3n3c2sc2ccccc23)cn1
5.38: pIC50 (second compound 1 µM)
5.63: pIC50 (second compound 10 µM)
5.34: pIC50 (second compound 0.316 µM)
5.27: pIC50 (second compound 0.0316 µM)
inactive: viability, T/C [1] 107% | viability, T/C [2] 112% | viability, T/C [3] 91.5% | viability, T/C [4] 92.3% | viability, T/C [5] 61.6% | viability, T/C [6] 34.9% | viability, T/C [7] 109% | viability, T/C [8] 96.7% | viability, T/C [9] 88.1% | viability, T/C [10] 88.8% | viability, T/C [11] 67.5% | viability, T/C [12] 37% | viability, T/C [13] 104% | viability, T/C [14] 98.9% | viability, T/C [15] 102% | viability, T/C [16] 82.9% | viability, T/C [17] 58.8% | viability, T/C [18] 32.9% | viability, T/C [19] 93.5% | viability, T/C [20] 81.5% | viability, T/C [21] 75.9% | viability, T/C [22] 75.7% | viability, T/C [23] 51.9% | viability, T/C [24] 35.1% | viability, T/C [25] 78.6% | viability, T/C [26] 71.2% | viability, T/C [27] 70.4% | viability, T/C [28] 62.4% | viability, T/C [29] 49.9% | viability, T/C [30] 24.6% | viability, T/C [31] 73.2% | viability, T/C [32] 77.9% | viability, T/C [33] 67.6% | viability, T/C [34] 59.7% | viability, T/C [35] 47.5% | viability, T/C [36] 21.2%
5.21: pIC50 (second compound 0.1 µM)
5.54: pIC50 (second compound 3.16 µM)

Cc1cccc(N(C)C(=O)C2C(O)CCN2c2nc(C)cc(C(F)(F)F)c2C#N)c1 (stereo not drawn) + Cc1cnc(CNC(=O)c2c(=O)c3ccc(N4CCCN(C)CC4)nc3n3c2sc2ccccc23)cn1
inactive: viability, T/C [1] 93.7% | viability, T/C [2] 107% | viability, T/C [3] 108% | viability, T/C [4] 99.7% | viability, T/C [5] 104% | viability, T/C [6] 96.9% | viability, T/C [7] 107% | viability, T/C [8] 106% | viability, T/C [9] 112% | viability, T/C [10] 98.6% | viability, T/C [11] 91.8% | viability, T/C [12] 108% | viability, T/C [13] 103% | viability, T/C [14] 84% | viability, T/C [15] 89.3% | viability, T/C [16] 93.9% | viability, T/C [17] 101% | viability, T/C [18] 82.5% | viability, T/C [19] 83.6% | viability, T/C [20] 95.6% | viability, T/C [21] 88.3% | viability, T/C [22] 88.4% | viability, T/C [23] 93.9% | viability, T/C [24] 94.3% | viability, T/C [25] 84% | viability, T/C [26] 70.5% | viability, T/C [27] 79.1% | viability, T/C [28] 72.8% | viability, T/C [29] 79.4% | viability, T/C [30] 73.3% | viability, T/C [31] 92.7% | viability, T/C [32] 90.9% | viability, T/C [33] 84.8% | viability, T/C [34] 72.6% | viability, T/C [35] 103% | viability, T/C [36] 84.3%
< 5.00: pIC50 (second compound 0.0316 µM) | pIC50 (second compound 0.1 µM) | pIC50 (second compound 0.316 µM) | pIC50 (second compound 1 µM) | pIC50 (second compound 3.16 µM) | pIC50 (second compound 10 µM)
